Ends that are not written are not given here.

Assay [1] addresses putative ATP binding region of the raf (raf 357-376) (Rattus norvegicus, UniProt P11345). Description: HPLAC on immobilized raf ATP binding region. How it is done:
The values of the dissociation constants (KM/P) are obtained in 0.1 M NH4 CH3 COO pH 5.7.
The recognition of the target peptide by the anti-sense peptides was evaluated by high performance affinity chroma tography (I. Chaiken, Ed., "Analytical Affinity Chromatography," CRC Press, Boca Raton, 1987). This system was chosen because it allows direct measurement of molecular interactions and it is not limited by either molecular size or by the need for a specialized detection system. The target 13-mer (GP-1) was immobilized on an affinity support system. The binding properties to the target peptide were evaluated by zonal elution methods (FIG. III) (Y. Shai et al, Biochem., 26:669 (1987)). […] Equilibrium binding constants were determined by loading varying amounts of the anti-sense peptides on the column and employing the equation: [formula] where KM/P represents the dissociation constant for the binding process,
In order to evaluate the general applicability of the complementary scoring program, a comparison was made between the DNA derived anti-sense peptide and a computer generated recognition-peptide. […] To compare the relative affinities of the DNA derived anti-sense peptide (FAR-[…]) and the computer generated recognition peptide (FARCG--[…]), the raf ATP binding region ([…]) was immobilized on an affinity support and the two anti-sense peptides evaluated by HPLAC techniques.

Assay [2] addresses target 13-mer (GP-1), amino terminus of a membrane glycoprotein. Description: HPLAC zonal elution on column with immobilized target 13-mer (GP-1). The format is binding, rat. The settings on record: for binding constants (in words): text summary of Table 4; for Km: zonal elution, immobilized GP-1, 100 mM NH4OAc pH 5.7, flow rate 1.0 ml/min, extrapolated to [P]=0, read-out: Equilibrium binding constant (dissociation constant) KM/P. How it is done: The recognition of the target peptide by the anti-sense peptides was evaluated by high performance affinity chroma tography (I. Chaiken, Ed., "Analytical Affinity Chromatography," CRC Press, Boca Raton, 1987). This system was chosen because it allows direct measurement of molecular interactions and it is not limited by either molecular size or by the need for a specialized detection system. The target 13-mer (GP-1) was immobilized on an affinity support system. The binding properties to the target peptide were evaluated by zonal elution methods (FIG. III) (Y. Shai et al, Biochem., 26:669 (1987)). The anti-sense recognition peptides were eluted on the sense column and the retardation volume of the peptide (V) was compared to the column void volume (Vo). Equilibrium binding constants were determined by loading varying amounts of the anti-sense peptides on the column and employing the equation: [formula] where KM/P represents the dissociation constant for the binding process,
MT is the amount of target peptide immobilized and
[P]represents the amount of recognition peptide eluted E. Swaisgood et al, Biochem., 25:4148 (1986)).
The KM/P values are obtained subsequent to extrapolation to [P]=0.
Values were obtained by zonal elution on a column with immobilized target
peptide (GP1) equilibrated with 100 mM NH4 OAc, pH = 5.7 with column
flow rate of 1.0 ml/min.

As to FHGHISMPFAFVYSSKAAAA [FAR-CG], the Km in assay [1] (immobilized raf ATP binding region GSGSFGTVYKGKWHGDVAVK, 0.1 M NH4CH3COO pH 5.7, read-out: Equilibrium binding constant KM/P) is 8 µM. Besides, the “fold higher affinity for the target peptide compared to the DNA derived anti-sense peptide” value in assay [1] (relative to FAR) is approximately 50 fold.

Turning to AAQHGGGLGVQVE [CODON-1, AAQHGGGLGVQVE], in assay [2], the “binding constants (in words)” value is given as “millimolar range” and the Km was 920 µM.

On to AAQHGRGFGIQIE [CODON-2], for which, in assay [2], the “binding constants (in words)” value is “millimolar range” and the Km was 460 µM.

These data come from US5081584A, “Computer-assisted design of anti-peptides based on the amino acid sequence of a target peptide” (United States of America, priority 1989, dated 1992).
